The text below walks through data of EPA's ToxRefDB 2.

As usually defined, the LOAEL is the lowest dose or exposure tested at which an adverse effect was seen. A word on the NOAEL: it is the highest tested level that showed no adverse finding.

Series [1] concerns rat. Particulars: Carcinogenicity, fischer, Oral, Feed, dose end: 107 week, group: systemic.
Series [2] has as its system mouse. The note with it: Carcinogenicity, b6c3f1, Oral, Feed, dose end: 100 week, group: systemic.
The test system of series [3] is rat. The note with it: Neurotoxicity screening battery, sprague dawley, Injection, Subcutaneous, dose end: 22 week, group: cannot be grouped.
Series [4] has as its system rat. The note with it: Peri- and post-natal toxicity study (Segment III); sprague dawley; Injection; Subcutaneous; dose end: 22 PND; group: parental; systemic / in life observation / body weight / body weight.
Series [5] has as its system rat. Particulars: Prenatal developmental toxicity study; sprague dawley; Injection; Subcutaneous; dose end: 20 GD; group: maternal; reproductive / reproductive performance / premature delivery / premature delivery + systemic / in life observation / body weight / body ….
The subject of series [6] is mouse. Particulars: Combined chronic toxicity/carcinogenicity, b6c3f1, Oral, Gavage/Intubation, dose end: 2 year, group: systemic.
Series [7] relates to rat. Particulars: Prenatal developmental toxicity study, wistar, Oral, Gavage/Intubation, dose end: 15 GD.
Series [8] relates to mouse. Particulars: Subchronic oral toxicity in rodents, b6c3f1, Gavage/Intubation, dose end: 14 week, group: systemic.
Series [9] concerns rat. The note with it: Combined chronic toxicity/carcinogenicity; fischer; Oral; Gavage/Intubation; dose end: 2 year; group: systemic; systemic / pathology microscopic / kidney / hyperplasia + systemic / pathology microscopic / kidney / nephropathy + systemic / pathology ….
In series [10] the test system is rat. The note with it: Subchronic oral toxicity in rodents, fischer, Gavage/Intubation, dose end: 14 week, group: systemic.
In series [11] the test system is rat. The note with it: Peri- and post-natal toxicity study (Segment III), wistar, Oral, Gavage/Intubation, dose end: 21 PND.
In series [12] the test system is dog. Particulars: Chronic toxicity; beagle; Oral; Feed; dose end: 52 week; group: systemic; systemic / in life observation / body weight / body weight gain + systemic / in life observation / clinical signs / abnormal gait + systemic….
The subject of series [13] is mouse. Particulars: Carcinogenicity; other; Oral; Feed; dose end: 18 month; group: systemic; systemic / clinical chemistry / alanine aminotransferase (alt/sgpt) / alanine aminotransferase (alt/sgpt) + systemic / clinical chemistry / ….
For series [14], the system named is rat. Particulars: Multigenerational reproductive toxicity study, sprague dawley, Oral, Feed, dose end: 2 generation.
The test system of series [15] is rat. The note with it: Prenatal developmental toxicity study, other, Oral, Gavage/Intubation, dose end: 15 GD.
In series [16] the test system is rat. The note with it: Subchronic oral toxicity in rodents, other, Feed, dose end: 3 month, group: systemic.
Series [17] has as its system rat. The note with it: Combined chronic toxicity/carcinogenicity, other, Oral, Feed, dose end: 24 month, group: systemic.
For series [18], the system named is dog. Particulars: Subchronic oral toxicity in nonrodent, beagle, Feed, dose end: 90 day, group: systemic.
[19] abbreviates: systemic / in life observation / body weight / body weight + systemic / pathology microscopic / mammary gland / dilatation + systemic / ….
Where [20] appears, read: systemic / pathology microscopic / mammary gland / hyperplasia.
The mark [21] stands for this setting: systemic / pathology gross / full gross necropsy / lymphoma malignant + systemic / in life observation / body weight / body weight gain.
The mark [22] stands for this setting: systemic / pathology gross / full gross necropsy / lymphoma malignant + systemic / in life observation / body weight / body weight gain + ….
The mark [23] stands for this setting: reproductive / reproductive performance / estrous cycle / periodicity + systemic / clinical chemistry / corticosterone / corticosterone + ….
The mark [24] stands for this setting: systemic / clinical chemistry / corticosterone / corticosterone + systemic / in life observation / body weight / body weight gain.
The mark [25] stands for this setting: systemic / pathology microscopic / liver / adenoma/carcinoma combined + systemic / pathology microscopic / liver / adenoma + systemic / ….
Setting [26] is: group: developmental, developmental / developmental malformation / bone / [other] + developmental / developmental malformation / bone / delayed ossification + ….
Where [27] appears, read: group: maternal, reproductive / reproductive performance / implantations / implantations + systemic / in life observation / body weight / body weight gain + ….
[28] abbreviates: systemic / organ weight / kidney / relative to body weight + systemic / organ weight / liver / absolute.
Setting [29] is: systemic / organ weight / kidney / absolute + systemic / organ weight / kidney / relative to body weight + systemic / organ weight / liver….
The mark [30] stands for this setting: group: developmental, developmental / developmental landmark / eye opening / eye opening + developmental / developmental landmark / pinna unfolding / pinna ….
[31] abbreviates: group: maternal, reproductive / reproductive performance / dystocia / dystocia + reproductive / reproductive performance / fertility / fertility + ….
The mark [32] stands for this setting: group: offspring, systemic / in life observation / body weight / offspring (pup) weight.
[33] abbreviates: group: parental, systemic / in life observation / body weight / body weight + systemic / in life observation / body weight / body weight gain + systemic / in….
[34] abbreviates: group: offspring, developmental / offspring survival late / lactation index / lactation index + systemic / in life observation / body weight / offspring (pup….
The mark [35] stands for this setting: group: parental, systemic / in life observation / body weight / body weight gain + systemic / in life observation / food consumption / food consumption + ….
Where [36] appears, read: group: developmental, developmental / developmental malformation / bone / incomplete ossification + developmental / developmental malformation / bone / irregular ….
The mark [37] stands for this setting: group: maternal, systemic / in life observation / body weight / body weight gain.
Setting [38] is: systemic / clinical chemistry / alkaline phosphatase (alp/alk) / alkaline phosphatase (alp/alk) + systemic / organ weight / liver / absolute….
[39] abbreviates: systemic / pathology microscopic / kidney / pigmentation + systemic / pathology microscopic / liver / hypertrophy.
[40] abbreviates: systemic / pathology microscopic / kidney / pigmentation + systemic / pathology microscopic / liver / hypertrophy + systemic / pathology ….
Where [41] appears, read: systemic / in life observation / clinical signs / skin ulceration.
Setting [42] is: systemic / in life observation / clinical signs / skin ulceration + systemic / clinical chemistry / alkaline phosphatase (alp/alk) / ….

For the compound `[Ca+2].[N-]=C=[N-]` [Calcium cyanamide], the LOAEL is greater than 10 mg/kg/day in the series with rat [1] (setting [19]) and greater than 300 mg/kg/day in the series with mouse [2] (setting [22]). Also, the NOAEL in the series with rat [1] (setting [19]) is no less than 10 mg/kg/day; in the series on mouse [2] (setting [22]), no less than 300 mg/kg/day. The LEL in the series on rat [1] (setting [20]) turned out to be 5 mg/kg/day; with mouse [2] (setting [21]), 75 mg/kg/day. Also, the NEL in the series on rat [1] (setting [20]) was less than 5 mg/kg/day; in the series with mouse [2] (setting [21]) it was less than 75 mg/kg/day.

On to `C[C@]12C[C@H](O)[C@H]3[C@@H](CCC4=CC(=O)CC[C@@]43C)[C@@H]1CC[C@@H]2C(=O)CO` [Corticosterone], for which the LOAEL in the series on rat [3] (setting [23]), in the series on rat [4] and in the series with rat [5] was greater than 40 mg/kg/day in each case. In addition, the NOAEL in the series with rat [3] (setting [23]), in the series on rat [4] and in the series with rat [5] was no less than 40 mg/kg/day each time. The results for the LEL in the series with rat [3] (setting [24]), in the series on rat [4] and in the series on rat [5] were 10 mg/kg/day, 40 mg/kg/day and 40 mg/kg/day, respectively. The NEL with rat [3] (setting [24]) was less than 10 mg/kg/day; in the series with rat [4], less than 40 mg/kg/day; with rat [5], less than 40 mg/kg/day.

On to `C=CC(=C)CCC=C(C)C` [Myrcene], for which the LOAEL in the series with mouse [6] (systemic / in life observation / body weight / body weight + systemic / pathology microscopic / liver / hypertrophy + systemic / pathology …) is 500 mg/kg/day; in the series with rat [7] (setting [26]) it was greater than 1200 mg/kg/day; with rat [7] (setting [27]), greater than 1200 mg/kg/day; with mouse [8] (systemic / in life observation / body weight / body weight + systemic / in life observation / body weight / body weight gain) it was 1000 mg/kg/day; with rat [9] it was 250 mg/kg/day; in the series on rat [10] (systemic / organ weight / kidney / absolute + systemic / organ weight / kidney / relative to body weight + systemic / pathology microscopic…), 500 mg/kg/day. Besides, the LOAEL in the series with rat [11] (setting [30]), with rat [11] (setting [31]), with rat [11] (setting [32]) and in the series on rat [11] (setting [33]) was greater than 1500 mg/kg/day each time. The NOAEL in the series with mouse [6] (systemic / pathology microscopic / liver / adenoma/carcinoma combined + systemic / in life observation / body weight / body weight + …) was 250 mg/kg/day; with rat [7] (setting [26]), no less than 1200 mg/kg/day; in the series on rat [7] (setting [27]), no less than 1200 mg/kg/day; in the series with mouse [8] (systemic / organ weight / liver / absolute + systemic / in life observation / body weight / body weight + systemic / in life observation / …) it was 500 mg/kg/day; in the series with rat [9], less than 250 mg/kg/day; with rat [10] (setting [29]) it was 250 mg/kg/day. The NOAEL with rat [11] (setting [30]), with rat [11] (setting [31]), in the series on rat [11] (setting [32]) and with rat [11] (setting [33]) was no less than 1500 mg/kg/day throughout. Further, the LEL in the series on mouse [6] (setting [25]) was 250 mg/kg/day; in the series on rat [7] (setting [26]), 1200 mg/kg/day; in the series on rat [7] (setting [27]), 1200 mg/kg/day; with mouse [8] (setting [28]), 250 mg/kg/day; with rat [9], 250 mg/kg/day; in the series on rat [10] (setting [29]) it was 250 mg/kg/day. Also, the LEL with rat [11] (group: developmental, developmental / developmental malformation / general / [other]) was 500 mg/kg/day; in the series on rat [11] (group: maternal, reproductive / offspring survival early / litter viability other / litter viability), 500 mg/kg/day; in the series on rat [11] (setting [32]), 500 mg/kg/day; in the series on rat [11] (group: parental, systemic / in life observation / body weight / body weight gain + systemic / pathology microscopic / stomach / hyperkeratosis), 1000 mg/kg/day. Further, the NEL with mouse [6] (setting [25]) was less than 250 mg/kg/day; in the series on rat [7] (setting [26]), 500 mg/kg/day; in the series on rat [7] (setting [27]) it was 500 mg/kg/day; in the series on mouse [8] (setting [28]) it was less than 250 mg/kg/day; in the series with rat [9] it was less than 250 mg/kg/day; in the series on rat [10] (setting [29]), less than 250 mg/kg/day. The NEL in the series with rat [11] (setting [30]) was determined as 250 mg/kg/day; with rat [11] (group: maternal, reproductive / offspring survival early / dead fetuses / dead fetuses + reproductive / offspring survival early / litter viability other / …), 250 mg/kg/day; with rat [11] (setting [32]) it was 250 mg/kg/day; in the series with rat [11] (setting [33]) it was 500 mg/kg/day.

Consider `C#CCOC(=O)[C@@H](C)Oc1ccc(Oc2ncc(Cl)cc2F)cc1` [Clodinafop-propargyl mixt.], for which the LEL with dog [12] turned out to be 15.2 mg/kg/day; in the series on mouse [13] it was 11 mg/kg/day; in the series on rat [14] (setting [34]) it was 31.7 mg/kg/day; in the series on rat [14] (setting [35]), 31.7 mg/kg/day; in the series on rat [15] (setting [36]), 40 mg/kg/day; in the series with rat [15] (setting [37]), 5 mg/kg/day. Besides, the values for the LEL in the series on rat [16] (setting [38]), in the series on rat [17] (setting [39]) and with dog [18] (setting [41]) were 8.24 mg/kg/day, 0.324 mg/kg/day and 1.73 mg/kg/day, respectively. Further, the LOAEL in the series with dog [12] is 15.2 mg/kg/day; with mouse [13], 11 mg/kg/day; in the series with rat [14] (setting [34]), 31.7 mg/kg/day; in the series with rat [14] (setting [35]) it was 31.7 mg/kg/day; with rat [15] (setting [36]), 40 mg/kg/day; in the series on rat [15] (setting [37]), greater than 160 mg/kg/day. Also, the LOAEL with rat [16] (setting [38]) came to 8.24 mg/kg/day; in the series on rat [17] (setting [39]), 0.324 mg/kg/day; with dog [18] (setting [41]) it was 1.73 mg/kg/day. Besides, the NEL with dog [12] was 3.38 mg/kg/day; in the series with mouse [13], 1.1 mg/kg/day; in the series on rat [14] (setting [34]) it was 3.21 mg/kg/day; in the series with rat [14] (setting [35]), 3.21 mg/kg/day; in the series on rat [15] (setting [36]), 5 mg/kg/day; with rat [15] (setting [37]) it was less than 5 mg/kg/day. In addition, the NEL with rat [16] (systemic / hematology / erythrocyte (rbc) count differential / erythrocyte (rbc) + systemic / hematology / hemoglobin (hgb) / hemoglobin (…) was 0.92 mg/kg/day; in the series on rat [17] (setting [40]), 0.031 mg/kg/day; with dog [18] (setting [42]), 0.346 mg/kg/day. Moreover, the NOAEL is 3.38 mg/kg/day with dog [12]; 1.1 mg/kg/day in the series on mouse [13]; 3.21 mg/kg/day in the series on rat [14] (setting [34]); 3.21 mg/kg/day with rat [14] (setting [35]); 5 mg/kg/day in the series with rat [15] (setting [36]); no less than 160 mg/kg/day in the series on rat [15] (setting [37]). Also, the values for the NOAEL with rat [16] (setting [38]), in the series with rat [17] (setting [40]) and in the series on dog [18] (setting [42]) were 0.92 mg/kg/day, 0.031 mg/kg/day and 0.346 mg/kg/day, respectively.
